Measured values: patent publication US5565435A (Kabushiki Kaisha Hayashibara Seibutsu Kagaku Kenkyujo, priority 1991, dated 1996)
≈ marks a conversion by molar mass, not a printed value.

Experiments:
[1] = Antioxidation activity (hydroperoxide formed by oxidation of linoleic acid, HPLC); conditions: 200 ppm, 50° C., light-shielded
Method: Ten ml of about one % linoleic acid in ethanol solution, 10 ml of 50 mM phosphate buffer and 5 ml water were mixed, and 5 ml aliquots of the mixture were distributed to 5 ml-flasks. […] A half ml of solution was sampled from each flask at a prescribed time interval, and the sampled solution was subjected to high-performance liquid chromatography (HPLC) to analyze the amount of hydroperoxide which was formed as a result of the oxidation of linoleic acid. The conditions used in the analysis of hydroperoxide were as follows:
Apparatus : WATERS MODEL M-6000A, a pump system commercialized by Japan Waters Ltd., Tokyo, Japan;
Column : ODS-M column, a column commercialized by Shimadzu Techno-Research,Inc., Kyoto, Japan;
Column temperature : 35° C.
Eluate : water:methanol:acetic acid =75:25:0.1
Detection wave length: at 235 nm

Solubility in solvent = assay type: physicochemical; conditions: 25° C. water (pH 7)

Cc1c(C)c2c(c(C)c1O)CCC(C)(CCCC(C)CCCC(C)CCCC(C)C)O2 (racemic) [dl-α-Tocopherol]
Relative intensity determined with the peak area corresponding to hydroperoxide, sampling day 0 ([1]; day 0, Control 0.3): 0.3
Relative intensity determined with the peak area corresponding to hydroperoxide, sampling day 4 ([1]; day 4, Control 1.5): 1.1
Relative intensity determined with the peak area corresponding to hydroperoxide, sampling day 7 ([1]; day 7, Control 5.3): 4.5
Relative intensity determined with the peak area corresponding to hydroperoxide, sampling day 8 ([1]; day 8, Control 7.1): 6.0

O=c1c(O)c(-c2ccc(O)c(O)c2)oc2cc(O)cc(O)c12 [quercetin]
solubility (Solubility in solvent): ~2 µg/mL (≈ 6.62 µM)
